In PMC10504544, “1-deoxy-D-xylulose-5-phosphate synthase from Pseudomonas aeruginosa and Klebsiella pneumoniae reveals conformational changes upon cofactor binding” (The Journal of Biological Chemistry, 2023):

What was measured:
Type in all cases: biochemical
[1] = biological target: T1, 1-deoxy-D-xylulose-5-phosphate synthase (kpDXPS) (Klebsiella pneumoniae, UniProt A6T5F3, DEL197-240/INS196GGGGGG); test: IspC-coupled spectrophotometric assay
T1 construct: gene dxs; truncated kpDXPS; residues 197 to 240 replaced with a six glycine unit

[2] = biological target: T2, 1-deoxy-D-xylulose-5-phosphate synthase (paDXPS) (Pseudomonas aeruginosa, UniProt B7V7R4, DEL206-245/INS205GGGGGG); test: co-crystal structure ([…] Å); coupled spectrophotometric inhibition assay
T2 construct: gene dxs; truncated paDXPS; residues 206 to 245 replaced with a six glycine unit

[3] = biological target: T3, 1-deoxy-D-xylulose-5-phosphate synthase (paDXPS) (Pseudomonas aeruginosa, UniProt B7V7R4, DEL206-245/INS205GGGGGG); test: IspC-coupled spectrophotometric assay; mode-of-inhibition study
T3 construct: gene dxs
T3 sequence (B7V7R4 1-627 INS205GGGGGG/DEL206-245): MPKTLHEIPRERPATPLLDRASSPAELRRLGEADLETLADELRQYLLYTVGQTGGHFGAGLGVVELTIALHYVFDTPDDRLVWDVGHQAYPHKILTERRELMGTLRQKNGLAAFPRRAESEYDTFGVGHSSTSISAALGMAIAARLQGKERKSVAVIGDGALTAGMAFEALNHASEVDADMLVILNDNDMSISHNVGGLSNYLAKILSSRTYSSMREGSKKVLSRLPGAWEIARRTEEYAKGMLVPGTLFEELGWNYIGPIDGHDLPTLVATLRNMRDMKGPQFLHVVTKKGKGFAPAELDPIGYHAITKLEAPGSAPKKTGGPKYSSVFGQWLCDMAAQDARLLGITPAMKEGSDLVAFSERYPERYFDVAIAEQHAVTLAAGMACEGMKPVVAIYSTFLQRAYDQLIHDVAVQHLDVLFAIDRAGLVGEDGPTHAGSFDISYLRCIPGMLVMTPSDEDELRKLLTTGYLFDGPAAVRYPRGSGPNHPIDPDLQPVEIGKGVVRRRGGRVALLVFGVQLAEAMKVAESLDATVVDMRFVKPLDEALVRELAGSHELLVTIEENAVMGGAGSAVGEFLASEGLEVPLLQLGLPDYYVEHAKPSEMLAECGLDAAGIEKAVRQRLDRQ

T1 sequence (A6T5F3 whole entry, stated change not applied, the tested form may be a part): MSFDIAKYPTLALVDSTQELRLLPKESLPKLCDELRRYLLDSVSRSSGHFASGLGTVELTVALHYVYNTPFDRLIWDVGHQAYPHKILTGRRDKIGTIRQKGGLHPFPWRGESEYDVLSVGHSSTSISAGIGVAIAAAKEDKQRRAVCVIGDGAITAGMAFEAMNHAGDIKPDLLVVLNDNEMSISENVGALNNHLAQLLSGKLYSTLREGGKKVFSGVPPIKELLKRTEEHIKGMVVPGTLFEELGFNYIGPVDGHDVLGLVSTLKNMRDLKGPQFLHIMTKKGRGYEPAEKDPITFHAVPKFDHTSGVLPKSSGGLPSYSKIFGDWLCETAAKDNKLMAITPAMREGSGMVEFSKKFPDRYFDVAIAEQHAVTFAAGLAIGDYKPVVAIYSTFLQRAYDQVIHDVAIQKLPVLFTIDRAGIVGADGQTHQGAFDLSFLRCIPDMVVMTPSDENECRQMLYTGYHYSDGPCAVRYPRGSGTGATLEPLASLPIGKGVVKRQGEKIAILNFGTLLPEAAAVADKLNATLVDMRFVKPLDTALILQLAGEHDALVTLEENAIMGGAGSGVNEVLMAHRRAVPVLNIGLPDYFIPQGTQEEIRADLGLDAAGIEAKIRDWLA

| SMILES | IC50 [1] | IC50 [2] | IC50 [3] |
| --- | --- | --- | --- |
| Cc1ncc(Cc2cccc(CCO)c2)c(N)n1 [2-{3-[(4-Amino-2-Methylpyrimidin-5-Yl)methyl]phenyl}ethanol] | 94 µM | 197 µM |  |
| O=C(O)C(=O)CF [fluoropyruvate] |  |  | ~27 µM |
